Reference: US11419953B2, “Reduced metastable complex macrocyclic contrast agents” (INVENTURE, LLC, priority 2020, dated 2022)

How the values were obtained:
[1] = Free Gd3+ release in vitro, comparative data (Example 6); format: physicochemical; settings: after 30 minutes at standard dosing
[2] = commercial product stored in bottle; cited from earlier work
[3] = cited from earlier work

Compound	In Vitro PPM (free GAD released) [1]	in-bottle measured free gadolinium [2]	stability lower at pH 7.4 than for the fully deprotonated complex [3]
CNC[C@H](O)[C@@H](O)[C@H](O)[C@H](O)CO.O=C([O-])CN1CCN(CC(=O)[O-])CCN(CC(=O)O)CCN(CC(=O)[O-])CC1.[Gd+3] [DOTAREM, gadoterate meglumine]	1,204 +/− 3.9 PPM		
O=C([O-])CN1CCN(CC(=O)[O-])CCN(CC(=O)[O-])CCN(CC(=O)[O-])CC1.[Gd+3] [Gd-DOTA]		10^13 Gd3+ ions in 100 ml of GCA product	7 orders of magnitude
